Assay results as given in US10111822B2, “External dermal composition for anti-ageing and method for producing the same” (Hayashibara Co., Ltd., priority 2012, dated 2018).

Tests used:
glutathione = experiment: Production level of glutathione in A431 cells; assay type: cell-based, human; settings: 1 mM, 24 h, control = 100%
Method: To Dulbecco's MEM medium, containing 10% v/v calf fetal serum and an antibiotic (abbreviated as “D-MEM”, hereinafter), were added ascorbic acid 2-glucoside, a reagent grade specimen commercialized by Hayashibara Co., Ltd., Okayama, Japan, or L-ascorbic acid, a special reagent grade specimen commercialized by Wako Pure Chemical Industries, Ltd., Tokyo, Japan, […]
Continuously-cultivated A431 cells in D-MEM medium were collected, resuspended in D-MEM medium, inoculated to culture plates with 10 cm in diameter (φ) in an amount of 1×10^6 cells/10 mL/plate, and cultured for 24 hours. Thereafter, the culture supernatants were removed by sucking, and the remaining cells were added with any of the test solutions in an amount of 10 mL/plate and cultured for another 24 hours. As a control, cells were added with only D-MEM medium in an amount of 10 mL/plate and cultured for 24 hours. To each plate, which had been removed its culture supernatant, was added ice-chilled Dulbecco's PBS (−) commercialized by Nissui Pharmaceutical Co., Ltd., Tokyo, Japan, to wash cells, which were then collected with a scraper. Glutathione was quantified with “Glutathione Assay Kit”, a commercially available glutathione assay kit commercialized by BioVision, Inc., San Francisco, USA. In this experiment, the control and test solutions were respectively assayed by using three plates respectively, and the data were averaged for obtaining a glutathione production level for each plate. A5% v/v CO2 incubator was used for culturing A431 cells in any case. Relative values of test samples were determined with the proviso that the production levels of reduced glutathione and total glutathione levels in A431 cells that had been cultured with only D-MEM medium were respectively regarded as 100%, and the results are in Table 4.

[1] = test system: Microphthalmia-associated transcription factor (MITF); experiment: MITF and phosphorylated MITF in B16 cells (Western); assay type: cell-based, mouse; settings: 2 h; for (Phosphorylated MITF)/(MITF): control 0.90; for Phosphorylated MITF / MITF: β-actin regarded as 100%; for Phosphorylated MITF: control 73; for MITF: control 81
Method: Test solutions were prepared by dissolving ascorbic acid 2-glucoside (a reagent grade specimen commercialized by Hayashibara Co., Ltd., Okayama, Japan) or L-ascorbic acid (a special reagent grade specimen commercialized by Wako Pure Chemical Industries, Ltd., Tokyo, Japan) in Dulbecco's MEM medium supplemented with 10% v/v fetal calf serum and an antibiotic (abbreviated as “D-MEM medium”, hereinafter) to give a final concentration of 2.0 or 8.0 mM.
Continuously-cultivated B16 cells in D-MEM medium were collected, resuspended in D-MEM medium, inoculated to 6-well plates in an amount of 1×10^5 cells/2 mL/well, and cultured for 24 hours. Thereafter, the culture supernatants were removed by sucking, and any of the test solutions was added to each plate in a volume of 2 mL/well, followed by culturing the cells for two hours. As a control, cells in other plates were added with only D-MEM medium in a volume of 2 mL/plate and cultured for two hours. To each plate, which had been removed its culture supernatant, an ice-chilled Dulbecco's PBS (−), commercialized by Nissui Pharmaceutical Co., Ltd., Tokyo, Japan, was added to wash cells, and the resulting cells were added with a SDS-sample buffer containing 62.5 mM Tris-HCl (pH 6.8), 2% w/v SDS, 10% w/v glycerol, 50 mM dithiothreitol (DTT), and 0.01% w/v bromophenol blue in a volume of 0.1 mL/well, and collected with a scraper. The resulting cell suspension was treated with an ultrasonicator, commercialized by Osminics Inc., Minnesota, USA, and subjected to SDS-polyacrylamide gel electrophoresis. The proteins in the gel were electrically transferred to a nitrocellulose membrane and allowed to sequentially react with a first antibody (Anti-phospho-MITF […] or Anti MITF), a secondary antibody, and LumiGLO™ in this order, followed by allowing to expose an X-ray film for detecting MITF positive bands. The bands thus detected were subjected to band strength analysis using Scion Image to determine the quantity of MITF and phosphorylated MITF. For every B16 cell culture, a 5% v/v CO2 incubator was used. Relative amounts of MITF and phosphorylated MITF and the ratio of phosphorylated MITF against MITF were determined when the level of β-actin in B16 cells upon culturing with each of the test solutions was regarded as 100%.

## O=C1O[C@H]([C@@H](O)CO)C(O)=C1O[C@H]1O[C@H](CO)[C@@H](O)[C@H](O)[C@H]1O [ascorbic acid 2-glucoside, 2-O-α-D-glucosyl-L-ascorbic acid]
glutathione
  Total glutathione: 106%
[1]; 2.0 mM
  (Phosphorylated MITF)/(MITF): 0.60
  Phosphorylated MITF: 59%
  MITF: 99%
[1]; 8.0 mM
  (Phosphorylated MITF)/(MITF): 0.36
  Phosphorylated MITF: 36%
  MITF: 101%
